This note sets out measurements from US7820834B2, “Triptolide 5,6-derivatives as immunomodulators and anticancer agents” (Pharmagenesis, Inc., priority 2004, dated 2010).

Holding throughout (assay type): cell-based
In series [1] the test system is IL-2 production in Jurkat cells. Kind of series: IL-2 Inhibition Assay. To be noted: without previous incubation in human serum, FIG. 4. As for the experimental part:
Test compounds were diluted to 1 mM in complete tissue culture medium. Aliquots were placed in microculture plates coated with anti-CD3 antibody (used to stimulate the production of IL-2 by Jurkat cells), and serial dilutions were prepared so that the final concentration would encompass the range of 0.001 to 10,000 nM in log increments.
Invention compound 14-acetyl-5,6-didehydrotriptolide (designated PG746) was tested with and without a previous 16-hr incubation in human serum. Such incubation is expected to substantially convert the 14-acetyl group of PG746 to a 14-hydroxy group.
Cells from an exponentially expanding culture of Jurkat human T cell line (#TIB-152 obtained from American Type Culture Collection, Manassas, Va.) were harvested, washed once by centrifugation, re-suspended in complete tissue culture medium, and diluted to a concentration of 10^7 cells/ml. A volume of 50 μl of Jurkat cells was added to wells containing 100 μl of the diluted compounds, and the cells were stimulated with 50 ng/ml PMA and […] PHA. The plates were incubated at 37° C. in a 5% CO2 incubator. […] The stored supernatants were analyzed for human IL-2 concentration using the Luminex 100 (Luminex Corporation, Austin, Tex.), Luminex microspheres coupled with anti-IL-2 capture antibody, and fluorochrome-coupled anti-IL-2 detection antibody. The data were expressed as pg/ml of IL-2. […]

Series [2] deals with human T cell lymphoma (Jurkat) cells. Kind of series: Cytotoxicity (MTT) Assay. To be noted: FIG. 2. The procedure: Test compounds were dissolved in DMSO at a concentration of 20 mM. Further dilutions were done in RPMI1640 medium (GIBCO, Rockville, Md.) supplemented with 10% Fetal Calf Serum (HyClone Laboratories, Logan, Utah). Invention compound 14-acetyl-5,6-didehydrotriptolide (designated PG746) was tested with and without a previous 16-hr incubation in human serum. Such incubation is expected to substantially convert the 14-acetyl group of PG746 to a 14-hydroxy group.
Cytotoxicity of the compounds was determined in a standard MTT assay using Cell Proliferation Kit I (#1 465 007, Roche Diagnostics, Mannheim, Germany). Accordingly, human T cell lymphoma (Jurkat) cells (4×10^5 per well) were cultured for 24 h, in 96-well tissue culture plates, in the presence of serial three-fold dilutions of test compounds or medium containing the same concentration of DMSO as in the test samples at each dilution point. The cultures were then supplemented with 10 μl/well MTT reagent for 4 h and then with 0.1 ml/well solubilizing reagent for an additional 16 h. Optical density at 570 nm was measured on a ThermoScan microplate reader (Molecular Devices, Menlo Park, Calif.).
The data is presented as OD570 values versus concentration of the compounds. The results for invention compound 14-acetyl-5,6-didehydrotriptolide (designated PG746) and triptolide (designated PG490) are given in FIG. 2.

Series [3] deals with Jurkat human T lymphoma cell line. Description: Annexin V Apoptosis Assay. To be noted: 24 h, dose-dependent, FIG. 1. The procedure: Test samples were diluted to 1 mM in complete tissue culture medium (RPMI 1640 medium plus 5% heat-inactivated fetal calf serum, 1% HEPES, 1% pen/strep, 1% glutamine). Aliquots were placed in microculture plates and serial dilutions were prepared so that the final concentration would encompass the range of 2 to 6,000 nM with half-log increments. Cells from an exponentially expanding culture of the Jurkat human T lymphoma cell line (#TIB-152 obtained from American Type Culture Collection, Manassas, Va.) were harvested, washed once by centrifugation, re-suspended in complete tissue culture medium, and further diluted to a concentration of 1×10^6 cells/ml. A volume of 100 μl of the cells (1×10^5 cells) was added to wells containing 100 μl of the diluted compounds, and the plates were incubated at 37° C. in a 5% CO2 incubator.
After 24 hours, the plates were centrifuged to pellet the cells, and the cells were washed twice with 2% heat-inactivated fetal calf serum in PBS. […] The contents of the wells were individually transferred into test tubes, and apoptosis was analyzed using a FACSCalibur flow cytometer (BD Immunocytometry Systems, San Jose, Calif.). Cells positive for Annexin V binding were considered to be apoptotic, and the data were calculated as percent apoptotic cells. […]

In the case of `CC(=O)O[C@@H]1[C@@]2(C(C)C)O[C@H]2[C@@H]2O[C@]23[C@]12O[C@H]2C=C1C2=C(CC[C@@]13C)C(=O)OC2` [PG746, 14-acetyl-5,6-didehydrotriptolide], the “inhibition of IL-2 production, activity relative to the medium control” value in series [1] is recorded as “no significant activity relative to the medium control”. Moreover, the “concentrations at which the compound was clearly cytotoxic to Jurkat cells (MTT)” value in series [2] (after incubation for 16 hours with human serum) was at least 1000 nM. In addition, the “cytotoxicity (MTT), activity relative to the medium control” value in series [2] (in assay medium, without previous incubation in human serum) is listed as “no significant activity relative to the medium control”.

In the case of `CC(C)[C@]12O[C@H]1[C@@H]1O[C@]13[C@]1(O[C@H]1C[C@@]1(O)C4=C(CC[C@]31C)C(=O)OC4)[C@@H]2O` [PG701, 5-α-hydroxytriptolide], the “induction of apoptosis (Annexin V positive cells)” value in series [3] is listed as “induced apoptosis in Jurkat cells”.
